pIC50: −log10 of the molar value. Counter-ions that a name gives are not always drawn. Like-named read-outs stand apart in the source and are kept apart here.
Key:
[1] = molecular target: full-length human PRMT6 (Flag- and His-tagged) (Homo sapiens, UniProt Q96LA8); assay: PRMT6 Biochemical Assay (3H-SAM Flashplate, peptide substrate); settings: read-out: Biochemical IC50 PRMT6
Procedure, shortened: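 Radiometric methyltransferase readout: tritium transfer onto a biotin-tagged histone H4 36-50 peptide bearing monomethyl K44 (75 nM), captured on streptavidin Flashplates after stopping with 400 uM unlabeled SAM. Enzyme is baculovirus-expressed Flag-PRMT6-His at 1 nM, given 30 min with compound at room temperature before adding 200 nM 3H-SAM and 250 nM cold SAM (pH 7.6 Bicine, 2% DMSO). Percent inhibition relative to max/min (1 mM SAH) controls, curve-fit to IC50.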

[2] = tested on: mono-methyl arginine in RKO cells; assay: RKO Methylation Assay, In Cell Western (ICW) for detection of mono-methyl arginine and DNA content; assay type: cell-based; settings: Homo sapiens, RKO, 72 h
Procedure, shortened: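 RKO cells were treated with compound for 72 hours at 37 °C, methanol-fixed and stained overnight at 4 °C with anti-mono-methyl arginine (1:200), with DRAQ5 for DNA. Odyssey 800/700 nm intensity ratio was normalized to DMSO and 20 μM reference-compound controls. EC30 from triplicate nine-point curves.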

[3] = single experiment or average of multiple experiments
[4] = RKO cells, 72 hours compound incubation, mono-methyl arginine signal normalised to DNA content (DRAQ5), percent activation vs 20 μM reference compound, read-out: In Cell Western EC30
[5] = RKO cells, 72 hours incubation, mono-methyl arginine signal normalised to DNA content, single experiment or average of multiple experiments, read-out: In Cell Western EC30

full-length human PRMT6 (Flag- and His-tagged), sequence (Q96LA8 with tags, fused parts or gaps): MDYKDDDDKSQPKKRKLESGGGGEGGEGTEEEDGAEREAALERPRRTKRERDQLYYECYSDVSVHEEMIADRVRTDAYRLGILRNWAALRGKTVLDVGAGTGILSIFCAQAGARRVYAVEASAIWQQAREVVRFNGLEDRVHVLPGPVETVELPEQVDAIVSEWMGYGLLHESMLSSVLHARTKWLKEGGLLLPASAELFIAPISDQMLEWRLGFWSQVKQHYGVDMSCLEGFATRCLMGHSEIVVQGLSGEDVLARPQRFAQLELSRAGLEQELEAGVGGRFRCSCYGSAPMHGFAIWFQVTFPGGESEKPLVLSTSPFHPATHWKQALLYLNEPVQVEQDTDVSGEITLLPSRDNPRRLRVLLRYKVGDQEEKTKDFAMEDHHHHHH

pIC50 [1]	pIC50 [1, 3]	SMILES	EC30 [2, 4]	EC30 [2, 5]	EC30 ([2]; read-out: In Cell Western EC30, RKO cells, 72 hours compound incubation, mono-methyl arginine signal normalised to DNA content (DRAQ5), percent activation vs 20 μM reference compound)	EC30 ([2]; read-out: In Cell Western EC30, RKO cells, 72 hours incubation, mono-methyl arginine signal normalised to DNA content, single experiment or average of multiple experiments)
5.52 to 6.00	5.91	CCOC[C@H]1CC(c2n[nH]cc2CN(C)CCNC)C[C@H](COCC)C1 (stereo partly drawn) [Compound 188]				
5.52 to 6.00	5.83	CCOC[C@@H]1C[C@H](COCC)C[C@H](c2n[nH]cc2CN(C)CCNC)C1 [Compound 189]	3010 to 12000 nM	6620 nM		
6.00 to 7.00	6.81	CNCCN(C)Cc1c[nH]nc1C1CCC(=O)N(CCCOC)C1 (stereo not drawn) [Compound 190]	3010 to 12000 nM	6620 nM		
6.00 to 7.00	6.97	CNCCN(C)Cc1c[nH]nc1C1CCC(=O)N(Cc2ccc(C(F)(F)F)cc2)C1 (stereo not drawn) [Compound 191]	3010 to 12000 nM	9250 nM		
6.00 to 7.00	6.76	CNCCN(C)Cc1c[nH]nc1[C@H]1CC[C@H](N(CC2CCOCC2)C(=O)CC(C)C)CC1 [Compound 192]	3010 to 12000 nM	9250 nM		
> 7.00	7.02	CNCCN(C)Cc1c[nH]nc1[C@H]1CC[C@H](N(CC(C)C)C(=O)CC2CCOCC2)CC1 [Compound 193]	< 3000 nM	1440 nM		
> 7.00	7.64	CNCCN(C)Cc1c[nH]nc1C1CCC(=O)CC1 [Compound 194]	< 3000 nM	1180 nM		
> 7.00	7.29	CCN(C(=O)CC1CCOCC1)[C@H]1CC[C@H](c2n[nH]cc2CN(C)CCNC)CC1 [Compound 195]	3010 to 12000 nM	4890 nM		
6.00 to 7.00	6.95	CCN(C(=O)CC1CCOCC1)[C@H]1CC[C@@H](c2n[nH]cc2CN(C)CCNC)CC1 [Compound 196]	3010 to 12000 nM	4890 nM		
> 7.00	7.97	CNCCN(C)Cc1c[nH]nc1[C@H]1CC[C@]2(CCN(Cc3cc(F)cc(F)c3)C2=O)CC1 [Compound 197]	< 3000 nM	406 nM		
5.00 to 5.52	5.07	CNCCN(C)Cc1c[nH]nc1[C@H]1CC[C@]2(CCCO2)OC1 [Compound 198]	< 3000 nM	406 nM		
> 7.00	7.44	CNCCN(C)Cc1c[nH]nc1C1CCC2(CCCC2)OC1 (stereo not drawn) [Compound 199]	< 3000 nM	802 nM		
> 7.00		CNCCN(C)Cc1n[nH]cc1[C@H]1CC[C@@]2(CC1)CC(C)(C)CO2 [Compound 200, Methyl[2-(methylamino)ethyl]([4-[(5S,8S)-3,3-dimethyl-1-oxaspiro[4.5]decan-8-yl]-1H-pyrazol-3-yl]methyl)amine trifluoroacetic acid salt]	< 3000 nM	20.3 nM		
6.00 to 7.00		CNCCN(C)Cc1n[nH]cc1[C@H]1CC[C@]2(CC1)CC(C)(C)CO2 [Compound 201]	< 3000 nM	155 nM		
> 7.00	7.18	CCOCC1CC(c2n[nH]cc2CN(C)CCNC)CCC1(C)C (stereo not drawn) [Compound 202]	< 3000 nM	327 nM		
> 7.00	7.43	CNCCN(C)Cc1n[nH]cc1[C@H]1CC[C@H](C(=O)NCCC(C)C)CC1 [Compound 203]	< 3000 nM	327 nM		
> 7.00	7.20	CNCCN(C)Cc1c[nH]nc1[C@H]1CC[C@@H](C(=O)NCCC(C)C)CC1 [Compound 204]	< 3000 nM	1550 nM		
> 7.00	7.15	CNCCN(C)Cc1cn(C)nc1[C@H]1CC[C@@]2(CC1)CC(C)(C)CO2 [Compound 205, Methyl([1-methyl-3-[(5S,8S)-3,3-dimethyl-1-oxaspiro[4.5]decan-8-yl]-1H-pyrazol-4-yl]methyl)[2-(methylamino)ethyl]amine hydrochloride]	< 3000 nM	14.4 nM		
6.00 to 7.00	6.68	CNCCN(C)Cc1cn(C)nc1[C@H]1CC[C@]2(CC1)CC(C)(C)CO2 [Compound 206, Methyl([1-methyl-3-[(5R,8S)-3,3-dimethyl-1-oxaspiro[4.5]decan-8-yl]-1H-pyrazol-4-yl]methyl)[2-(methylamino)ethyl]amine hydrochloride]	< 3000 nM	76.5 nM		
> 7.00		CN(CCN)Cc1c[nH]nc1[C@H]1CC[C@@]2(CC1)CC(C)(C)CO2 [Compound 207]	< 3000 nM	12.1 nM		
> 7.00	7.34	CN(CCN)Cc1c[nH]nc1[C@H]1CC[C@]2(CC1)CC(C)(C)CO2 [Compound 208]	< 3000 nM	67.2 nM		

pIC50 [1]	pIC50 [1, 3]	SMILES	EC30 [2, 4]	EC30 [2, 5]	EC30 ([2]; read-out: In Cell Western EC30, RKO cells, 72 hours compound incubation, mono-methyl arginine signal normalised to DNA content (DRAQ5), percent activation vs 20 μM reference compound)	EC30 ([2]; read-out: In Cell Western EC30, RKO cells, 72 hours incubation, mono-methyl arginine signal normalised to DNA content, single experiment or average of multiple experiments)
> 7.00	7.28	CNCCN(C)Cc1c[nH]nc1[C@H]1CC[C@H](C(=O)N(C)CCC(C)C)CC1 [Compound 209]	< 3000 nM	916 nM		
> 7.00	7.50	CNCCN(C)Cc1c[nH]nc1[C@H]1CC[C@@H](C(=O)N(C)CCC(C)C)CC1 [Compound 210]	< 3000 nM	280 nM		
> 7.00	7.94	CNCCN(C)Cc1c[nH]nc1[C@H]1CC[C@H](C(=O)NCCOc2ccccc2)CC1 [Compound 211]	< 3000 nM	155 nM		
> 7.00	7.87	CNCCN(C)Cc1c[nH]nc1[C@H]1CC[C@@H](C(=O)NCCOc2ccccc2)CC1 [Compound 212]	< 3000 nM	433 nM		
> 7.00	7.04	CNCCN(C)Cc1c[nH]nc1[C@H]1CC[C@H](C(=O)N(CCCOC)CCC(C)C)CC1 [Compound 213]	< 3000 nM	433 nM		
> 7.00	7.30	CNCCN(C)Cc1c[nH]nc1[C@H]1CC[C@@H](C(=O)N(CCCOC)CCC(C)C)CC1 [Compound 214]	< 3000 nM	95.8 nM		
> 7.00	7.51	CNCCN(C)Cc1c[nH]nc1[C@H]1CC[C@@H](C(=O)N(C)CC(C)C)CC1 [Compound 215]	< 3000 nM	164 nM		
> 7.00	7.69	CNCCN(C)Cc1c[nH]nc1C1CCC(F)(F)CC1 [Compound 216]	< 3000 nM	111 nM		
> 7.00	7.52	CNCCN(C)Cc1c[nH]nc1[C@H]1CC[C@@H](N(CCOc2ccccc2)C(=O)CCOC)CC1 [Compound 218]				
> 7.00	7.50	CNCCN(C)Cc1c[nH]nc1[C@H]1CC[C@H](N(CCOc2ccccc2)C(=O)CCOC)CC1 [Compound 219]	< 3000 nM	294 nM		
> 7.00	7.73	CNCCN(C)Cc1c[nH]nc1[C@H]1CC[C@@H](N(CCOc2ccccc2)C(=O)CCCOC)CC1 [Compound 228]				
> 7.00	7.38	CNCCN(C)Cc1c[nH]nc1[C@H]1CC[C@@H](N(CCCOC)C(=O)CC(C)C)CC1 [Compound 242]				
> 7.00	7.82	CNCCN(C)Cc1c[nH]nc1[C@H]1CC[C@H](N(CCCOC)C(=O)CCC(C)C)CC1 [Compound 243]				
> 7.00	7.21	CNCCN(C)Cc1cnn(C)c1[C@H]1CC[C@@]2(CC1)CC(C)(C)CO2 [Compound 245, Methyl ([2-[methyl([1-methyl-5-[(5S,8S)-3,3-dimethyl-1-oxaspiro[4.5]decan-8-yl]-1H-pyrazol-4-yl]methyl)amino]ethyl])amine trifluoroacetic acid salt]				
> 7.00	7.84	CCN(C(=O)CCC(C)C)[C@H]1CC[C@H](c2n[nH]cc2CN(C)CCNC)CC1 [Compound 250]				
> 7.00	7.20	CNCCN(C)Cc1c[nH]nc1C1CCC(C)(C)[C@@H](C(=O)NCCC(C)C)C1 (stereo partly drawn) [Compound 263, (1S)-2,2-dimethyl-5-[4-({methyl[2-(methylamino)ethyl]amino}methyl)-1H-pyrazol-3-yl]-N-(3-methylbutyl)cyclohexane-1-carboxamide]				
6.00 to 7.00	6.88	CNCCN(C)Cc1c[nH]nc1C1CCC(C)(C)[C@H](C(=O)NCCOC)C1 (stereo partly drawn) [Compound 264]				
6.00 to 7.00	6.76	CNCCN(C)Cc1c[nH]nc1C1CCC(C)(C)[C@H](C(=O)NCCCOC)C1 (stereo partly drawn) [Compound 265]				
> 7.00	7.10	CNCCN(C)Cc1c[nH]nc1C1CCC(C)(C)[C@@H](C(=O)NCC(C)C)C1 (stereo partly drawn) [Compound 266]				
5.00 to 5.52	≤ 5.00	CNCCN(C)Cc1c[nH]nc1C1C[C@H](C(=O)N(C)CC(C)C)C(C)(C)[C@H](C(=O)N(C)CC(C)C)C1 (stereo partly drawn) [Compound 267]				

SMILES	pIC50 [1]	pIC50 [1, 3]	EC30 [2, 4]	EC30 [2, 5]	EC30 ([2]; read-out: In Cell Western EC30, RKO cells, 72 hours compound incubation, mono-methyl arginine signal normalised to DNA content (DRAQ5), percent activation vs 20 μM reference compound)	EC30 ([2]; read-out: In Cell Western EC30, RKO cells, 72 hours incubation, mono-methyl arginine signal normalised to DNA content, single experiment or average of multiple experiments)
CNCCN(C)Cc1c[nH]nc1[C@H]1CC[C@@H](O)CC1 [Compound 217, 4-[4-([methyl[2-(methylamino)ethyl]amino]methyl)-1H-pyrazol-3-yl]cyclohexan-1-ol trifluoroacetate]	> 7.00	7.47			< 3000 nM	111 nM
